Publication PMC11347150, “Aurora: a fluorescent deoxyribozyme for high-throughput screening” (Nucleic Acids Research, 2024)

Key:
[1] = parameters: method as in PMID 9873685, PMID 18355003; details: pH 10; cited from earlier work
Nsp15 = Nsp15 (Severe acute respiratory syndrome coronavirus 2, UniProt P0DTD1); details: 1 mM ZnCl2, negative control wells
Protocol: Small molecules from a 1000-member fragment screen library (Maybridge) were transferred to the wells of 384-well plates using an Echo 550 liquid handler. Nsp15 protein in 1 × Nsp15 buffer (50 mM KCl, 20 mM HEPES pH 7.4, 5 mM MnCl2, 0.003% (v/v) Tween20) was then added using a CERTUS Flex liquid handler. After mixing, the Aurora Nsp15 sensor (in 1 × Nsp15 buffer) was added using a CERTUS Flex liquid handler. Reactions were mixed again. Final concentrations were 25 μM Aurora Nsp15 sensor, 400 nM Nsp15 protein, 1 × Nsp15 buffer (50 mM KCl, 20 mM HEPES pH 7.4 and 5 mM MnCl2), 0.003% (v/v) Tween20, and 200 μM small molecule from the fragment screen library in a volume of 20 μl. […] The reaction mixture was incubated at room temperature for 4 h, and fluorescence was measured using a Tecan Spark plate reader. Fluorescence was measured in a black flat bottom 384-well plate (Corning).
The average value of this background was subtracted from the fluorescence values obtained from all other wells. […] Activity of Nsp15 in the presence of small molecules from the fragment screen library was calculated relative to this positive control value. Z-factors ([22]) were calculated for each 384-well plate to determine the quality of the screen. […]

| SMILES | Brightness (ϵ × Φ) [1] | Extinction coefficient (ϵ) [1] | Maximum emission wavelength (λem) [1] | Maximum excitation wavelength (λmax) [1] | Quantum yield (Φ) [1] | inhibition of Nsp15 (Nsp15) |
| --- | --- | --- | --- | --- | --- | --- |
| Cc1cc(=O)oc2cc(O)ccc12 [4-MU] | 10 710 M^−1 cm^−1 | 17 000 M^−1 cm^−1 | 450 nm | 360 nm | 0.63 | – |
| [Cl-].[Cl-].[Zn+2] [ZnCl2] | – | – | – | – | – | inhibited Nsp15 |
